Experimental data from patent publication US7772188B2, “Methods and compositions for the treatment of gastrointestinal disorders” (priority 2003, dated 2010).
Positions of bridges follow the written chain, without caps; N, C: chain ends. Residues, ends and D or L forms follow the SMILES beside them.

Columns and labels:
[1] = molecular target: T1, intestinal GC-C receptor (Homo sapiens, UniProt P25092); assay: Intestinal GC-C receptor activity assay (cyclic GMP by EIA in T84 cells); assay type: cell-based; details: chemically synthesized peptides, FIG. 2
T1 construct: host or cells: T84 human colon carcinoma cells
T1 sequence (P25092 24-1073): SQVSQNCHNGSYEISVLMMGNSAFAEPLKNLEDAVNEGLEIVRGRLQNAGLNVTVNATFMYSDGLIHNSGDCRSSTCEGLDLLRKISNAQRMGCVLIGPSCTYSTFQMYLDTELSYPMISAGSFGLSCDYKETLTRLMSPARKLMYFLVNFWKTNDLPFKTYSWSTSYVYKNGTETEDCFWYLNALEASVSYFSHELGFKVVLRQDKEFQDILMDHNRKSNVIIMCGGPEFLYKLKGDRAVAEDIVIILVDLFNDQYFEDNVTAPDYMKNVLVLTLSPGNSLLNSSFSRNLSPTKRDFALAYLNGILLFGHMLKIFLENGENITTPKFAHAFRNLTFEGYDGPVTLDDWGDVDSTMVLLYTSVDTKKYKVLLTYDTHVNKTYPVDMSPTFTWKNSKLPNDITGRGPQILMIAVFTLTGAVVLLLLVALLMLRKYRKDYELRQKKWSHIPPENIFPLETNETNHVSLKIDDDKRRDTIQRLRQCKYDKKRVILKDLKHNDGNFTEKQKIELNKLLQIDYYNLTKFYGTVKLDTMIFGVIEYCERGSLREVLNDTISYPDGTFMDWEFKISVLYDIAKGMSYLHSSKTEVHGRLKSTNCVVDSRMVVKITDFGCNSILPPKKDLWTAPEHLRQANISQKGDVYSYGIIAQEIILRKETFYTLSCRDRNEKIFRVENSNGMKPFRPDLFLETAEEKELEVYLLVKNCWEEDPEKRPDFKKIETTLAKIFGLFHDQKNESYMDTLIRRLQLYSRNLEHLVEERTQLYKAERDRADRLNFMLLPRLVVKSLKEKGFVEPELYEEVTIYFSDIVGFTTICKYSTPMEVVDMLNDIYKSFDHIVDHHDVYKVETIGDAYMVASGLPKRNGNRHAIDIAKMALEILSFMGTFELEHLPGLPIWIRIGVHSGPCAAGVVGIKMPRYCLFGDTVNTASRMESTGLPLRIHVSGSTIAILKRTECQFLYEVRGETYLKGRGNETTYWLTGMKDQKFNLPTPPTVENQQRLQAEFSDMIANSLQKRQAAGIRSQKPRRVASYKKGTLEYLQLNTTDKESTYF
Experimental: The ability of SEQ ID NO:5, SEQ ID NO:4, and SEQ ID NO:3 to activate the intestinal GC-C receptor was assessed in an assay employing the T84 human colon carcinoma cell line (American Type Culture Collection (Bethesda, Md.)). For the assays cells were grown to confluency in 24-well culture plates with a 1:1 mixture of Ham's F12 medium and Dulbecco's modified Eagle's medium (DMEM), supplemented with 5% fetal calf serum and were used at between passages 54 and 60.
Briefly, monolayers of T84 cells in 24-well plates were washed twice with 1 ml/well DMEM, then incubated at 37° C. for 10 min with 0.45 ml DMEM containing 1 mM isobutylmethylxanthine (IBMX), a cyclic nucleotide phosphodiesterase inhibitor. Test peptides (50 μl) were then added and incubated for 30 minutes at 37° C. The media was aspirated and the reaction was then terminated by the addition of ice cold 0.5 ml of 0.1N HCl. The samples were held on ice for 20 minutes and then evaporated to dryness using a heat gun or vacuum centrifugation. The dried samples were resuspended in 0.5 ml of phosphate buffer provided in the Cayman Chemical Cyclic GMP EIA kit (Cayman Chemical, Ann Arbor, Mich.). Cyclic GMP was measured by EIA according to procedures outlined in the Cayman Chemical Cyclic GMP EIA kit.

[2] = tested on: abdominal response to colorectal distension; assay: Trinitrobenzenesulphonic acid (TNBS)-induced rectal allodynia model, colorectal distension; assay type: in vivo, Wistar rats; details: rats, FIG. 7
Experimental: Male Wistar rats (220-250 g) were premedicated with 0.5 mg/kg of acepromazine injected intraperitoneally (IP) and anesthetized by intramuscular administration of 100 mg/kg of ketamine. Pairs of nichrome wire electrodes (60 cm in length and 80 μm in diameter) were implanted in the striated muscle of the abdomen, 2 cm laterally from the white line. The free ends of electrodes were exteriorized on the back of the neck and protected by a plastic tube attached to the skin. Electromyographic (EMG) recordings were started 5 days after surgery. Electrical activity of abdominal striated muscle was recorded with an electroencephalograph machine (Mini VIII, Alvar, Paris, France) using a short time constant (0.03 sec.) to remove low-frequency signals (<3 Hz).
Ten days post surgical implantation, trinitrobenzenesulphonic acid (TNBS) was administered to induce rectal inflammation. TNBS (80 mg kg^−1 in 0.3 ml 50% ethanol) was administered intrarectally through a silicone rubber catheter introduced at 3 cm from the anus under light diethyl-ether anesthesia, as described (Morteau et al. 1994 Dig Dis Sci 39:1239). […] Evaluation of rectal sensitivity, as measured by EMG, was performed before (1-2 days) and 3 days following rectal instillation of TNBS.
The number of spike bursts that corresponds to abdominal contractions was determined per 5 min periods. […]

[3] = molecular target: T2, GC-C receptors found in rat intestinal mucosa (Rattus norvegicus, UniProt P23897); assay: biochemical
T2 sequence (P23897 23-1072): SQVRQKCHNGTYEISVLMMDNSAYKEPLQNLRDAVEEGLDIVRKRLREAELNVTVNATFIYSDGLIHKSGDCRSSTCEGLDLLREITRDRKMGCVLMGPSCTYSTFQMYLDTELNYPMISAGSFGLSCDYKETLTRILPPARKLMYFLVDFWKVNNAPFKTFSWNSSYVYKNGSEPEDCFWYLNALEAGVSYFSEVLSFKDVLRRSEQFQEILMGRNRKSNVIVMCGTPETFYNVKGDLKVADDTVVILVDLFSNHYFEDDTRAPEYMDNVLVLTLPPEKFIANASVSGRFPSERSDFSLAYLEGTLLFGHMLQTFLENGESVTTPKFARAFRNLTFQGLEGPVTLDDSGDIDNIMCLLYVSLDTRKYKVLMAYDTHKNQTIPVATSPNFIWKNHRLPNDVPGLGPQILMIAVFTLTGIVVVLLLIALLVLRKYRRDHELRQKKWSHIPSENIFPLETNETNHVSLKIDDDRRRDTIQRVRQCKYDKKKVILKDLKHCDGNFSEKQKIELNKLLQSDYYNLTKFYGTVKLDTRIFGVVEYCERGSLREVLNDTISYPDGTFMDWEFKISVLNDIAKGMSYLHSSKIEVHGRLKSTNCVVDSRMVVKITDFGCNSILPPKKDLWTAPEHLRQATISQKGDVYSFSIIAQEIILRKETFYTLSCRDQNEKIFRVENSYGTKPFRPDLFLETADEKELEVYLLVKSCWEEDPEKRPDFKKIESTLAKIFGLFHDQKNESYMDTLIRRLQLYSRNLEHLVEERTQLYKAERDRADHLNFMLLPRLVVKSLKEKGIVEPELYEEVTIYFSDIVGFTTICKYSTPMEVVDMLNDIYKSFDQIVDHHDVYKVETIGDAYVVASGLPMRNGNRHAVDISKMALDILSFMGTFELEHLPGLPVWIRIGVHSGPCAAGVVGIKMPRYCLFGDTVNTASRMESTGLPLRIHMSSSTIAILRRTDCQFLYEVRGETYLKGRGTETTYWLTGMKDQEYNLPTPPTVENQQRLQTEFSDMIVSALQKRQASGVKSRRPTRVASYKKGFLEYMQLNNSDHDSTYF
Experimental: To determine the affinity of SEQ ID NO:3 for GC-C receptors found in rat intestinal mucosa, a competition binding assay was performed using rate intestinal epithelial cells. Epithelial cells from the small intestine of rats were obtained as described by Kessler et al. (J. Biol. Chem. 245: 5281-5288 (1970)). Briefly, animals were sacrificed and their abdominal cavities exposed. The small intestine was rinsed with 300 ml ice cold saline or PBS. 10 cm of the small intestine measured at 10 cm from the pylorus was removed and cut into 1 inch segments. Intestinal mucosa was extruded from the intestine by gentle pressure between a piece of parafilm and a P-1000 pipette tip. Intestinal epithelial cells were placed in 2 ml PBS and pipetted up and down with a 5 ml pipette to make a suspension of cells.
A competition binding assay was performed based on the method of Giannella et al. (Am. J. Physiol. 245: G492-G498) between [^125I] labeled SEQ ID NO:4 and SEQ ID NO:3. The assay mixture contained: 0.5 ml of DME with 20 mM HEPES-KOH pH 7.0, 0.9 mg of the cell suspension listed above, 21.4 fmol [^125I]-SEQ ID NO:4 (42.8 pM), and different concentrations of competitor SEQ ID NO:3 (0.01 to 1000 nM). […] The filters were washed with 5 ml ice-cold PBS and radioactivity was measured.

SMILES: C[C@@H]1NC(=O)[C@@H]2CCCN2C(=O)[C@H](CC(N)=O)NC(=O)[C@@H]2CSSC[C@H](N)C(=O)N[C@H]3CSSC[C@H](NC1=O)C(=O)N[C@@H]([C@@H](C)O)C(=O)NCC(=O)N[C@H](C(=O)N[C@@H](Cc1ccc(O)cc1)C(=O)O)CSSC[C@H](NC(=O)[C@H](Cc1ccc(O)cc1)NC(=O)[C@H](CCC(=O)O)NC3=O)C(=O)N2 [SEQ ID NO:3, Cys Cys Glu Tyr Cys Cys Asn Pro Ala Cys Thr Gly Cys Tyr] (H-CCEYCCNPACTGCY-OH; disulfide 1-6, 2-10, 5-13; N-terminus and C-terminus assumed)
- activity in GC-C receptor activity assay [1]: activity comparable to SEQ ID NO:4
- abdominal response (abdominal contractions, EMG) ([2]; 0.3 μg/kg): Significant decreases in abdominal response
- abdominal response (abdominal contractions, EMG) ([2]; 3 μg/kg): Significant decreases in abdominal response
- Kd [3]: 4.5 nM
